Data taken from US4594238A (Regents of University of Minnesota, priority 1984, dated 1986).
“Also recorded” adds a separate entry of the source. Where two headings read alike, the source gives them in different places.

Experiments:
[1] = thiourea administered prior to the platinum (II); cited from earlier work
[2] = tested on: thyroid hormone production; conditions: cited from earlier work
Pt/DNA complexes = conditions: cited from earlier work
Rat mammary tumor 13762 = test: Comparative tumor response to DDP with and without NaDDTC rescue, Example 2; format: in vivo, Female F344 (Fischer) rats
Method: (§1) Female F344 (Fischer) rates, initial weight 100-150 g, were obtained from the Charles River Breeding Laboratory, Wilmington, MA. They were housed in methacrylate cages and given Purina rat chow and water ad libitum for at least one week. Lean weight of the rats were 150 g at the onset of experiments unless otherwise noted.
(§2) Mammary Tumor 13762 was obtained in the form of an implanted tumor in a female F344 rat. All intravenous injections were carried out under brief ether anesthesia.
Tumor inoculation was carried out as follows: two rats bearing tumors having a mean diameter of 2.5-3.5 cm were sacrificed using ether anesthesia. The tumors were excised immediately, finely minced, combined, and resuspended in 20-40 ml of normal saline. This suspension was filtered through a gauze pad to remove coarse pieces of tissue and the resulting suspension inoculated subcutaneously (0.2-0.5 ml/injection) into the left flank of each rat.

[3] = Protection of rats against DDP toxicity by i.p. NaDDTC (BUN, weight loss, diarrhea, histopathology), Example 1 / Table 1; format: in vivo, Male F344 (Fischer) rats; conditions: for Incidence of Diarrhea: DDP […] i.v.; for BUN / Weight Loss: Day 5, DDP […] i.v.
Text: Male F344 (Fischer) rats (average weight, 150 g) were obtained from the Charles River Breeding Laboratory. They were divided into groups of four rats, placed in methacrylate cages, and given National Institute of Health chow for rodents and water ad lib, for 7 days. Average weight of the rats was 180 g (range, 160-200 g) when injected.
Tetraethylthiuram disulfide (disulfiram) was obtained from Sigma Chemical Co., St. Louis MO. […] Trav. Chim. 70:917 (1951); immediately prior to injection, it was dissolved in sterile water at a concentration of 100 mg/ml. Sodium bicarbonate was prepared in sterile water at a concentration of 50 mg/ml. All injections were carried out under brief ether anesthesia.
Otherwise, weight and BUN were determined at 5 days after injection, reportedly the time of maximal observed toxicity. Evidence of gastrointestinal toxicity was obtained qualitatively by noting the presence or absence of diarrhea 3-5 days after injection.
Randomly selected animals were sacrificed at 5 days after injection for study of histopathologic changes in the kidney and to note the presence or absence of hemorrhagic enteritis. Kidneys were removed, placed in Zenker's fixative, embedded in paraffin, sectioned at 6 μm, and stained with hematoxylin and eosin.

[4] = Reduction of toxicity (including bone marrow toxicity) of platinum compounds, Example 4; format: in vivo; conditions: platinum compounds of drawing 16, X=OH or H2O
[5] = Comparative nephrotoxicity: low-dose i.v. vs high-dose i.p. NaDDTC rescue after DDP, Example 2; format: in vivo, Female F344 (Fischer) rats; conditions: for Kidney sections / Day 5 BUN (mean ±SEM) / Diarrhea / Weight loss on day 5: DDP 6 mg/kg i.v.
Method: as §1, §2

[6] = Urinary excretion of free and conjugated DDTC; format: in vivo, rats; conditions: rat, urine, ip, 500 mg/kg, NaDDTC 500 mg/kg ip
Text: Intravenous administration was explored in an attempt to deliver larger quantities of free DDTC anion to the likely site of toxicity in the renal tubule; urinary excretion of DDTC was monitored as a means of estimating changes in tubular levels of free DDTC. The standard assay for DDTC anion utilizes a spectrophotometric determination following reaction with cupric ion to form the colored Cu(DDTC)2 complex. Unfortunately, the affinity of cupric ion for sulfur ligands is such that this metal ion will catalyze the decomposition of the DDTC glucuronide and therefore will not discriminate between free and conjugated DDTC. Ferric ion does react selectively with the free ligand, thereby providing a convenient assay for both free and total DDTC in urine.
Excretion of free and conjugated NaDDTC in the urine of rats was measured as follows. NaDDTC was administered in selected doses via intraperitoneal or intravenous injection. Rats were then placed in metabolic cages and urine was collected and analyzed at 30 minute intervals. Urine samples (0.1-5.0 ml) were added to 2 ml of a solution containing ferric nitrate (20 mM) and sodium citrate (200 mM). The dark Fe (DDTC)3 complex was extracted into chloroform (4 ml) by vortexing for 5 minutes. The mixture was chilled, centrifuged for 1 minute, and the chloroform layer separated. To this chloroform solution was added saturated aqueous cupric sulfate (2 ml), and the mixture was vortexed for 5 minutes, chilled, and centrifuged for 1 minute. The chloroform solution was separated and the Cu(DDTC)2absorbance measured at 435 nm. Free DDTC was determined by comparison of absorbance to a standard curve. Total DDTC was determined by addition of 0. 05-1.0 ml of urine to 3 ml of saturated cupric sulfate followed by incubation at 45° for 30 minutes. The resulting Cu(DDTC)2 complex was extracted into chloroform and analyzed as described above. DDTC-glucuronide excretion was determined by subtraction of free from total DDTC.

[7] = rats; cited from earlier work
[8] = cited from earlier work
[9] = DDP 2 mg/kg i.v., NaDDTC 100 mg/kg i.v.
[10] = DDP 2 mg/kg, DDTC 750 mg/kg ip 2 hours later
[11] = DDP 8 mg/kg with DDTC rescue 750 mg/kg ip
[12] = DDTC 500 mg/kg ip 1/2 hour after DDP, n=4
[13] = DDTC 500 mg/kg ip 1 hour after DDP, n=4
[14] = DDTC 500 mg/kg ip 2 hours after DDP, n=4
[15] = DDTC 750 mg/kg ip 0 hours after DDP, n=12
[16] = DDTC 750 mg/kg ip 3/4 hour after DDP, n=5
[17] = DDTC 750 mg/kg ip 1 hour after DDP, n=16
[18] = DDTC 750 mg/kg ip 2 hours after DDP, n=14
[19] = DDTC 750 mg/kg ip 3 hours after DDP, n=10
[20] = DDTC 750 mg/kg ip 4 hours after DDP, n=7
[21] = DDTC 750 mg/kg ip 6 hours after DDP, n=5
[22] = DDTC 750 mg/kg ip at -1/2 hour (30 minutes before DDP), n=4
[23] = DDTC 750 mg/kg ip, rescue time printed 11/2 hours after DDP, n=15
[24] = NaDDTC administered between 1 and 4 hours after DDP
[25] = NaDDTC immediately after DDP (time=0 hour)
[26] = NaDDTC 100 mg/kg i.v. 2 hours after DDP
[27] = NaDDTC 750 mg/kg i.p. 2 hours after DDP

SMILES: NC(N)=S [thiourea]
- Efficacy of platinum (II) [1]: Decreased efficacy of platinum (II)
- Inhibition of thyroid hormone production [2]: reported to inhibit thyroid hormone production
- Reversal of Pt/DNA complexing (Pt/DNA complexes): does reverse Pt/DNA complexing

SMILES: CCN(CC)C(=S)[S-].[Na+] [DDTC, sodium diethyldithiocarbamate]
- Adverse effects on tumor response to DDP (Rat mammary tumor 13762; [9]): no adverse effects
- Initial response, control vs intravenous rescue group (Rat mammary tumor 13762; [9]): Initial response was identical in both groups
- Rats with relapse between days 25 and 30 (Rat mammary tumor 13762; DDP 2 mg/kg i.v., NaDDTC 100 mg/kg i.v. 2 hours after DDP, n=8): 2/8
- Other (non-relapsed) rats through day 50 (Rat mammary tumor 13762; DDP 2 mg/kg i.v., NaDDTC 100 mg/kg i.v., n=8): essentially free of tumor through day 50
- Minimum tumor diameter, day 23 (Rat mammary tumor 13762; DDP 2 mg/kg i.v., NaDDTC 750 mg/kg i.p. 2 hours after DDP, n=11): 1.3 cm
- Rats with relapse by day 30 (Rat mammary tumor 13762; DDP 2 mg/kg i.v., NaDDTC 750 mg/kg i.p., n=11): 9/11
- Mean tumor diameter by day 30 (Rat mammary tumor 13762; DDP 2 mg/kg i.v., NaDDTC 750 mg/kg i.p., relapsed rats): 2.2 cm
- Disappearance of tumor (Rat mammary tumor 13762; [10]): disappearance of tumor was not observed
- Initial response versus unrescued group (Rat mammary tumor 13762; [10]): identical to that of the unrescued group
- Mean minimum tumor diameter at day 21 (Rat mammary tumor 13762; [10]): 1.2 cm
- Mean tumor diameter at day 30 (Rat mammary tumor 13762; [10]): 3.0 cm
- Relapse and subsequent tumor growth versus no rescue (Rat mammary tumor 13762; [10]): earlier onset of relapse and more rapid subsequent tumor growth
- Deaths (Rat mammary tumor 13762; [11]): no deaths
- Tumor-free rats by day 28 (Rat mammary tumor 13762; [11]): 1/8
- Initial tumor response with or without NaDDTC rescue (Rat mammary tumor 13762; DDP 2, 4, and 8 mg/kg, NaDDTC 750 mg/kg ip): identical with or without NaDDTC rescue
- Tumor response at DDP 4 and 8 mg/kg versus 2 mg/kg (Rat mammary tumor 13762; DDP 4 and 8 mg/kg, DDTC rescue 750 mg/kg ip): Qualitatively similar results
- Local recurrence and tumor growth (Rat mammary tumor 13762; NaDDTC 750 mg/kg ip): locally recurring tumors recur earlier and grow more rapidly; also recorded: local recurrence commenced earlier and tumors grew more rapidly
- Effect of ip rescue on initial tumor response (Rat mammary tumor 13762; ip route of rescue): does not seem to have any significant adverse effect upon initial tumor response
- Incidence of Diarrhea ([3]; DDTC 750 mg/kg ip 0 hours after DDP): 0/6
- Incidence of Diarrhea ([3]; DDTC 750 mg/kg ip 3/4 hour after DDP): 0/5
- Incidence of Diarrhea ([3]; DDTC 750 mg/kg ip 1 hour after DDP): 0/8
- Incidence of Diarrhea ([3]; DDTC 750 mg/kg ip 2 hours after DDP): 0/14
- Incidence of Diarrhea ([3]; DDTC 750 mg/kg ip 6 hours after DDP): 2/5
- Incidence of Diarrhea ([3]; DDTC 750 mg/kg ip 6 hours after DDP, listed as NaDDTC): two of the five
- BUN [3, 12]: 152 ± 20 mg/dL
- Weight Loss [3, 12]: 4 ± 2%
- BUN [3, 13]: 90 ± 5 mg/dL
- Weight Loss [3, 13]: 4 ± 1%
- BUN [3, 14]: 72 ± 11 mg/dL
- Weight Loss [3, 14]: 2 ± 2%
- BUN [3, 15]: 214 ± 21 mg/dL
- Weight Loss [3, 15]: 9 ± 1%
- BUN [3, 16]: 56 ± 9 mg/dL
- Weight Loss [3, 16]: 8 ± 2%
- BUN [3, 17]: 63 ± 4 mg/dL
- Weight Loss [3, 17]: 13 ± 1%
- BUN [3, 18]: 95 ± 9 mg/dL
- Weight Loss [3, 18]: 15 ± 1%
- BUN [3, 19]: 77 ± 8 mg/dL
- Weight Loss [3, 19]: 10 ± 1%
- BUN [3, 20]: 106 ± 8 mg/dL
- Weight Loss [3, 20]: 14 ± 1%
- BUN [3, 21]: 209 ± 44 mg/dL
- Weight Loss [3, 21]: 18 ± 2%
- BUN [3, 22]: 418 ± 43 mg/dL
- Weight Loss [3, 22]: 18 ± 1%
- BUN [3, 23]: 62 ± 3 mg/dL
- Weight Loss [3, 23]: 5 ± 1%
- Reduction in BUN or weight loss ([3]; NaDDTC 6 hours after DDP): failed to demonstrate significant reduction either in BUN or weight loss
- Rescue efficacy ([3]; NaDDTC 6 hours after DDP): only minimal rescue efficacy (if any)
- Diarrhea [3, 24]: Diarrhea was not observed
- Kidney sections, histopathology [3, 24]: barely discernible pale band of mild tubule degeneration in the outer zone of the outer medullary stripe
- Necropsy, small intestine [3, 24]: grossly normal small intestine
- Reduction in BUN and weight loss [3, 24]: Marked reduction
- Decrease in weight loss [3, 25]: significant decrease in weight loss
- Reduction of BUN levels [3, 25]: without reduction of BUN levels
- Protection from nephrotoxic effects of DDP ([3]; NaDDTC ip 500-750 mg/kg, DDP doses as high as 8 mg/kg): would afford protection from the nephrotoxic effects of DDP
- Reducing the toxicity (including bone marrow toxicity) of platinum compounds [4]: effective in reducing the toxicity (including bone marrow toxicity)
- Kidney sections ([5]; NaDDTC 100 mg/kg i.v.): mild hydropic changes with occasional evidence of degeneration
- Day 5 BUN (mean ±SEM) [5, 26]: 43±5 milligrams per deciliter
- Diarrhea [5, 26]: not observed
- Weight loss on day 5 [5, 26]: 14%
- Kidney sections ([5]; NaDDTC 750 mg/kg i.p.): mild hydropic changes with occasional evidence of degeneration
- Day 5 BUN (mean ±SEM) [5, 27]: 73±4 milligrams per deciliter
- Diarrhea [5, 27]: not observed
- Weight loss on day 5 [5, 27]: 9%
- Inhibition of platinum-induced nephrotoxicity ([5]; administered intravenously): effectively inhibit platinum-induced nephrotoxicity without deleterious effects on tumor response
- Protection against nephrotoxicity, intravenous vs intraperitoneal ([5]; low-dose i.v. vs. high-dose i.p. DDTC rescue): essentially equivalent for both routes

SMILES: CCN(CC)C(=S)[S][Na]
- dose excreted at 2 h ([6]; within 2 hours, read-out: Free ligand in urine, of the initial dose): < 0.1%
- dose excreted at 2 h ([6]; read-out: Total DDTC excreted by the kidneys within 2 hours, of the dose given): 18 to 20%
- LD50 [7]: at least 1,500 mg/kg
- Solubility in alcohol ([8]; alcohol): also soluble in alcohol
- Solubility in water ([8]; water): highly soluble in water, e.g. in molar quantities
